Reference: patent US6632669B2, “Plant kinases and methods of modulation of their activity in plants” (The Salk Institute for Biological Studies, priority 1999, dated 2003)

Tests used:
35S::PID plants = test: Root growth in response to exogenous auxin in 35S::PID plants (selected on kanamycin plates with NAA); type: in vivo, Arabidopsis; conditions: for Lateral roots / Primary root length: mean ± standard deviation
Procedure: (§1) Plants were grown in florescent light under long-day conditions (16 hours light, 8 hours dark). Wild type was Columbia. Transgenic plants were generated by vacuum infiltration (Bechtold et al. (1993) C. R. Acad. Sci. 316:1194-1199). For root gravitropism experiments, seeds were grown on vertically oriented 1/2×MS plates at 24° C.
The failure of 35S::PID plants to develop lateral roots in response to exogenous auxin can be explained by defects in either auxin uptake or response. To distinguish between these possibilities, 35S: PID plants was selected on plates containing kanamycin and 0, 0.1, 1.0 or 10.0 μM NAA.

35S::PID T2 plants = test: Lateral root formation of 35S::PID T2 plants grown on plates supplemented with NAA; type: in vivo, Arabidopsis; conditions: 10 days on 0.1 μm NAA
Procedure: as §1
To determine whether the loss of lateral root formation in 35::PID plants could be bypassed by exogenous auxin, T2 plants were grown on plates supplemented with the synthetic auxin-analog NAA ([…]). […] As in the previous experiment, there was a perfect correlation between loss of lateral root formation and agravitropic root growth.

Arabidopsis MAP kinase = conditions: tobacco cell extract, protoplasts treated with 2,4-D; cited from earlier work

Q: With `O=C(O)Cc1ccc2ccccc2c1` [NAA, β-napthaleneacetic acid] as the compound, how does the “Lateral root growth at very high NAA concentrations” value (35S::PID plants; 35S::PID plants) read?
A: still inhibited

Q: What about the “Primary root elongation with increasing NAA concentration” value (35S::PID plants; 35S::PID plants, 0, 0.1, 1.0 or 10.0 μM NAA) of the same compound?
A: progressively inhibited

Q: What about the Lateral roots (35S::PID plants; 35S::PID plants, [NAA] 0.1 μM) of the same compound?
A: 0.1 ± 0.3

Q: And the Primary root length (35S::PID plants; 35S::PID plants, [NAA] 0.1 μM)?
A: 11.6 ± 5.9 mm

Q: What about the Lateral roots (35S::PID plants; 35S::PID plants, [NAA] 1 μM) of the same compound?
A: 0.1 ± 0.3

Q: And the Primary root length (35S::PID plants; 35S::PID plants, [NAA] 1 μM)?
A: 6.0 ± 3.1 mm

Q: And the Lateral roots (35S::PID plants; 35S::PID plants, [NAA] 10 μM)?
A: 0.7 ± 1.2

Q: And the Primary root length (35S::PID plants; 35S::PID plants, [NAA] 10 μM)?
A: 1.4 ± 0.5 mm

Q: What about the “Bypass of the block in lateral root formation caused by PID overexpression” value (35S::PID T2 plants; T2 plants) of the same compound?
A: did not overcome the block in lateral root formation

Q: And the “Average number of lateral roots in seedlings that produced lateral roots” value (35S::PID T2 plants; T2 progeny of 35S::PID, 11 of 37 germinated seedlings (range 18-31), remaining 26 produced none)?
A: 24

Q: With `O=C(O)COc1ccc(Cl)cc1Cl` [2,4-D] as the compound, how does the “Effectiveness of MAP kinase phosphorylation by extract of treated protoplasts versus extracts from auxin-starved cultures” value (Arabidopsis MAP kinase) read?
A: three to four-fold more effective
